Key:
human LPA3 receptor = biological target: T1, human LPA3 receptor (Homo sapiens, UniProt Q9UBY5); experiment: LPA3 calcium flux assay (CHO cells stably expressing human LPA3); type: cell-based; settings: read-out: LPA3 Binding IC50
T1 construct: The full-length cDNA fragment for human LPA3 was obtained by PCR from the vector; expressed in transfected cells
T1 sequence (Q9UBY5 1-353): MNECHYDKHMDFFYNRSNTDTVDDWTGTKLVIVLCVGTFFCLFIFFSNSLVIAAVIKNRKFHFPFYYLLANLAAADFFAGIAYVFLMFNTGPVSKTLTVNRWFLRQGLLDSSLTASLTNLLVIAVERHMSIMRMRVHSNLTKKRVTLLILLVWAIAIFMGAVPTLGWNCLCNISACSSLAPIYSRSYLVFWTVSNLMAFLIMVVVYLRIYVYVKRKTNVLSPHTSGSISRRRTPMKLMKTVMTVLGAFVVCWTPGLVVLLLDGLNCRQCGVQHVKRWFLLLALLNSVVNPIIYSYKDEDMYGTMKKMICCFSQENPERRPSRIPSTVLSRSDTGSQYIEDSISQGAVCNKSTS
Description: A vector containing the human LPA3 receptor cDNA was obtained from the Missouri S&T cDNA Resource Center (www.cdna.org). The full-length cDNA fragment for human LPA3 was obtained by PCR from the vector. The nucleotide sequence of the cloned human LPA3 was determined by sequencing and confirmed to be identical to the published human LPA3 sequence (NCBI accession number NM_012152). The cDNA was cloned into the pCDNA5/FRT expression plasmid and transfected in CHO cells using lipofectamine 2000 (Invitrogen Corp., USA). Clones stably expressing human LPA3 were selected using hygromycin and identified as cells that show Ca-influx in response to LPA.
(§1) Human LPA1 or LPA3 expressing CHO cells are seeded at 20,000-45,000 cells per well in a 96-well poly-D-lysine coated plate one or two days before the assay. Prior to the assay, the cells are washed once with PBS and then cultured in serum-free media overnight. On the day of the assay, a calcium indicator dye (Calcium 4, Molecular Devices) in assay buffer (HBSS with Ca^2+ and Mg^2+ and containing 20 mM Hepes and 0.3% fatty-acid free human serum albumin) is added to each well and incubation continued for 1 hour at 37° C. 10 μl of test compounds in 2.5% DMSO are added to the cells and incubation continued at room temperature for 30 minutes. Cells are the stimulated by the addition of 10 nM LPA and intracellular Ca^2+ measured using the Flexstation 3 (Molecular Devices). IC50s are determined using Graphpad prism analysis of drug titration curves.

human LPA1 receptor = biological target: T2, human LPA1 receptor (Homo sapiens, UniProt Q92633); experiment: LPA1 binding (GTPγS binding assay, membranes of CHO cells expressing human LPA1); type: biochemical; settings: 900 nM LPA, [35S]-GTPγS
T2 construct: the full-length cDNA for human LPA1 was obtained by PCR of the reverse transcription reaction; expressed in transfected cells
T2 sequence (Q92633 whole entry): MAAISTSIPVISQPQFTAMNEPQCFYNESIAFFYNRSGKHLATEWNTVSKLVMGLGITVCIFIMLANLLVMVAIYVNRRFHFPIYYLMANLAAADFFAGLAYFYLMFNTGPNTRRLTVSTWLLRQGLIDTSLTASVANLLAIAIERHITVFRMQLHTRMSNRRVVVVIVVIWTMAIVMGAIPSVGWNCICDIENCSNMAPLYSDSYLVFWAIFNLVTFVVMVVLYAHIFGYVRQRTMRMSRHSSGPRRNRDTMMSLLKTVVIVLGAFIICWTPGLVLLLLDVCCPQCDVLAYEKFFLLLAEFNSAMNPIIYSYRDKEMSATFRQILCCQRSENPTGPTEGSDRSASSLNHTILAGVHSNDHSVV
Description: A 1.1 kb cDNA encoding the human LPA1 receptor was cloned from human lung. Human lung RNA (Clontech Laboratories, Inc. USA) was reverse transcribed using the RETROscript kit (Ambion, Inc.) and the full-length cDNA for human LPA1 was obtained by PCR of the reverse transcription reaction. The nucleotide sequence of the cloned human LPA1 was determined by sequencing and confirmed to be identical to the published human LPA1 sequence (An et al. Biochem. Biophys. Res. Commun. 231:619 (1997). The cDNA was cloned into the pCDNA5/FRT expression plasmid and transfected in CHO cells using lipofectamine 2000 (Invitrogen Corp., USA). Clones stably expressing human LPA1 were selected using hygromycin and identified as cells that show Ca-influx in response to LPA.
The ability of a compound to inhibit binding of GTP to LPA1 is assessed via a membrane GTPγS assay. CHO cells stably expressing the recombinant human LPA1 receptor are resuspended in 10 mM Hepes, 7.4 containing 1 mM DTT, lysed and centrifuged at 75,000×g to pellet the membranes. The membranes are resuspended in 10 mM Hepes, 7.4 containing 1 mM DTT and 10% glycerol. Membranes (˜25 μg per well) are incubated in 96-well plates with 0.1 nM [^35S]-GTPγS, 900 nM LPA, 5 μM GDP, and test compound in Assay Buffer (50 mM Hepes, pH 7.4, 100 mM NaCl, 10 mM MgCl2, 50 μg/ml saponin and 0.2% fatty-acid free human serum albumin) for 30 minutes at 30° C. The reactions are terminated by rapid filtration through Whatman GF/B glass fibre filter plates. The filter plates are washed 3 times with 1 ml cold Wash Buffer (50 mM Hepes, 7.5, 100 mM NaCl and 10 mM MgCl2) and dried. Scintillant is then added to the plates and the radioactivity retained on the filters is determined on a Packard TopCount (Perkin Elmer). Specific binding is determined as total radioactive binding minus non-specific binding in the absence of the ligand (900 nM LPA). IC50s were determined using Graphpad prism analysis of drug titration curves.

[1] = system: A2058 human melanoma cells; experiment: LPA1 chemotaxis assay; type: cell-based; settings: 100 nM LPA, read-out: IC50, inhibition of LPA-driven chemotaxis
Description: Chemotaxis of the A2058 human melanoma cells was measured using the Neuroprobe ChemoTx® System plates (8 μm pore size, 5.7 mm diameter sites). The filter sites were coated with 0.001% fibronectin (Sigma) in 20 mM Hepes, pH 7.4 and allowed to dry. A2058 cells were serum-starved for 24 hours, then harvested with Cell Stripper and resuspended in DMEM containing 0.1% fatty-acid-free bovine serum albumin (BSA) to a concentration of 1×10^6/ml. Cells were mixed with an equal volume of test compound (2×) in DMEM containing 0.1% fatty-acid-free BSA and incubated at 37° C. for 15 minutes. LPA (100 nM in DMEM containing 0.1% fatty-acid-free BSA) or vehicle was added to each well of the lower chamber and 50 μl of the cell suspension/test compound mix was applied to the upper portion of the ChemoTx plate. Plates were incubated at 37° C. for three hours and then the cells removed from the upper portion by rinsing with PBS and scraping. The filter was dried then stained with HEMA 3 Staining System (Fisher Scientific). The absorbance of the filter was read at 590 nm and IC50s were determined using Symyx Assay Explorer.

human LPA2 receptor = biological target: T3, human LPA2 receptor (Homo sapiens, UniProt Q9HBW0); experiment: LPA2 calcium flux assay (B103 cells transiently expressing human LPA2); type: cell-based; settings: read-out: LPA2 Binding IC50
T3 construct: The full-length cDNA fragment for human LPA2 was obtained by PCR from the vector; expressed in transfected cells; host or cells: B103 cells (pCDNA3.1, transient, lipofectamine 2000)
T3 sequence (Q9HBW0 whole entry, the tested form may be a part): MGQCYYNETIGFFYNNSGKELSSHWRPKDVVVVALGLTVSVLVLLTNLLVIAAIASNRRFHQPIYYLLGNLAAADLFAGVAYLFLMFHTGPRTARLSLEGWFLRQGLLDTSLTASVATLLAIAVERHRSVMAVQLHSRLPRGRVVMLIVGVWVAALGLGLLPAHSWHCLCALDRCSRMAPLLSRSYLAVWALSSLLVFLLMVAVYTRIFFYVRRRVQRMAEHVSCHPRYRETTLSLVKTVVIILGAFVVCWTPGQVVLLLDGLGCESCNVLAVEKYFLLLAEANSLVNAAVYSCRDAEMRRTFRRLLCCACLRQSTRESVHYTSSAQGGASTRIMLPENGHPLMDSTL
Description: A vector containing the human LPA2 receptor cDNA was obtained from the Missouri S&T cDNA Resource Center (www.cdna.org). The full-length cDNA fragment for human LPA2 was obtained by PCR from the vector. The nucleotide sequence of the cloned human LPA2 was determined by sequencing and confirmed to be identical to the published human LPA2 sequence (NCBI accession number NM_004720). The cDNA was cloned into the pCDNA3.1 expression plasmid and transfected into B103 cells (Invitrogen Corp., USA) by seeding cells in a 96-well poly-D-lysine coated plate at 30,000-35,000 cells per well together with 0.2 μl lipofectamine 2000 and 0.2 μg of the LPA2 expression vector. Cells were cultured overnight in complete media before being assayed for LPA-induced Ca-influx.
as §1, with “Following an overnight culture with lipofectamine 2000 and” for “Human LPA1 or LPA3 expressing CHO cells are seeded at 20,000-45,000 cells per well in a 96-well poly-D-lysine coated plate one or two days before”, “LPA2 expression vector,” for “assay. Prior to”, “B103” for “assay, the”, “PBS” for “PBS and”, “serum starved for 4 hours. A” for “cultured in serum-free media overnight. On the day of the assay, a”

Row | Structure (SMILES) | IC50 (human LPA3 receptor) [nM] | IC50 (human LPA1 receptor) [nM] | IC50 [1] [nM] | IC50 (human LPA2 receptor) [nM]
1 | Cc1ccccc1-c1cccc(Nc2c(C)noc2-c2ccc(-c3ccc(C4(C(=O)O)CC4)cc3)cc2)n1 [Compound 1, 1-(4′-{3-Methyl-4-[6-(2-methyl-phenyl)-pyridin-2-ylamino]-isoxazol-5-yl}-biphenyl-4-yl)-cyclopropanecarboxylic acid] | < 300 | < 300 | < 500 | < 300
2 | Cc1cccc(-c2cccc(Nc3c(C)noc3-c3ccc(-c4ccc(C5(C(=O)O)CC5)cc4)cc3)n2)c1 [Compound 2, 1-(4′-{3-Methyl-4-[6-(3-methyl-phenyl)-pyridin-2-ylamino]-isoxazol-5-yl}-biphenyl-4-yl)-cyclopropanecarboxylic acid] | < 300 | < 300 | < 500 | < 300
3 | Cc1ccc(-c2cccc(Nc3c(C)noc3-c3ccc(-c4ccc(C5(C(=O)O)CC5)cc4)cc3)n2)cc1 [Compound 3, 1-(4′-{3-Methyl-4-[6-(4-methyl-phenyl)-pyridin-2-ylamino]-isoxazol-5-yl}-biphenyl-4-yl)-cyclopropanecarboxylic acid] | < 300 | < 300 | < 500 | < 300
4 | Cc1ccccc1-c1cncc(Nc2c(C)noc2-c2ccc(-c3ccc(C4(C(=O)O)CC4)cc3)cc2)c1 [Compound 4, 1-(4′-{3-Methyl-4-[5-(2-methyl-phenyl)-pyridin-3-ylamino]-isoxazol-5-yl}-biphenyl-4-yl)-cyclopropanecarboxylic acid] | < 300 | < 300 | < 500 | < 300
5 | Cc1cccc(-c2cncc(Nc3c(C)noc3-c3ccc(-c4ccc(C5(C(=O)O)CC5)cc4)cc3)c2)c1 [Compound 5, 1-(4′-{3-Methyl-4-[5-(3-methyl-phenyl)-pyridin-3-ylamino]-isoxazol-5-yl}-biphenyl-4-yl)-cyclopropanecarboxylic acid] | < 300 | < 300 | < 500 | < 300
6 | Cc1ccc(-c2cncc(Nc3c(C)noc3-c3ccc(-c4ccc(C5(C(=O)O)CC5)cc4)cc3)c2)cc1 [Compound 6, 1-(4′-{3-Methyl-4-[5-(4-methyl-phenyl)-pyridin-3-ylamino]-isoxazol-5-yl}-biphenyl-4-yl)-cyclopropanecarboxylic acid] | < 300 | < 300 | < 500 | < 300
7 | Cc1cccc(-c2cccc(Nc3c(C)noc3-c3ccc(-c4ccc(C5(C(=O)NS(C)(=O)=O)CC5)cc4)cc3)n2)c1 [Compound 8, N-(1-{4′-[3-Methyl-4-(6-(3-methyl-phenyl)-pyridin-2-ylamino)-isoxazol-5-yl]-biphenyl-4-yl}-cyclopropanecarbonyl)-methanesulfonamide] | < 300 | < 300 |  | < 300
8 | Cc1cccc(-c2cncc(Nc3c(C)noc3-c3ccc(-c4ccc(C5(C(=O)NS(C)(=O)=O)CC5)cc4)cc3)c2)c1 [Compound 11, N-(1-{4′-[3-Methyl-4-(5-(3-methyl-phenyl)-pyridin-3-ylamino)-isoxazol-5-yl]-biphenyl-4-yl}-cyclopropanecarbonyl)-methanesulfonamide] | < 300 | < 300 |  | < 300

— US8541587B2, “Lysophosphatidic acid receptor antagonists” (Amira Pharmaceuticals, Inc., priority 2011, dated 2013)
